From patent US20230405157A1, “MELANOCORTIN TYPE 2 RECEPTOR (MC2R) TARGETED THERAPEUTICS AND USES THEREOF” (Radionetics Oncology, Inc., priority 2022, published 2023)

What follows are molecules tested against T1, human MC2R (Homo sapiens, UniProt Q01718) (assay: Inhibition of binding of ACTH in human MC2R-containing membranes (SPA radioligand competition)). Settings: competition with 0.2 nM [125I]-TYR23]-ACTH (1-39), membranes of CHO-K1 cells expressing hMC2 receptor; read-out: hMC2 membrane binding.
T1 construct: host or cells: CellSensor CRE-bla CHO-K1 cells
Procedure: Crude membrane fractions are prepared from CellSensor CRE-blaCHO-K1 cells stably expressing functional hMC2 receptor (ThermoFisher #K1483). […] Cells were collected and washed in Dulbecco's phosphate buffered saline (Corning #21-031-CV). […] The membrane fraction is separated from cell debris and collected in membrane preparation buffer, flash frozen in liquid nitrogen and stored at −80° C. […] Briefly, membranes from cells expressing the human MC2R were incubated with SPA beads (PerkinElmer #RPNQ0001) in binding assay buffer [50 mM HEPES (Biopioneer #C0113), 5 mM MgCl2 (Sigma #M8266), 1 mM CaCl2) (Fisher Scientific #BP510), 0.2% BSA (Fisher Scientific #BP1600), and protease inhibitors (Pierce #A32963); pH 7.4]. […] All data manipulations to determine the Kivalues were performed using GraphPad v8 (GraphPad, San Diego CA)

T1 sequence (Q01718 whole entry): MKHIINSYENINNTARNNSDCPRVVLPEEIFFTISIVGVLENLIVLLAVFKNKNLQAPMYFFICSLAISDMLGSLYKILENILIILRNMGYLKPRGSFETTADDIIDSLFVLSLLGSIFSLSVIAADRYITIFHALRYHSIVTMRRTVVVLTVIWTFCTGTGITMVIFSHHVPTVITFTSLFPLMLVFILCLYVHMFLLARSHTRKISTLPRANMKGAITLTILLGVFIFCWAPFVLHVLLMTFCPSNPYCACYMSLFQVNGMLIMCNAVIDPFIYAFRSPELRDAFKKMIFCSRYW
T1 sequence (Q8TCY5 whole entry partner): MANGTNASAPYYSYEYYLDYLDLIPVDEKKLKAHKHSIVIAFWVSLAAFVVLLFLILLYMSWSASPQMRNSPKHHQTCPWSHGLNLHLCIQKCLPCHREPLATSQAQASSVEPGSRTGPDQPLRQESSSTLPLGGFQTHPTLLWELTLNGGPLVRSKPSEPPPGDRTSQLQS

Molecule	Ki [nM]
CCOc1ccc(C(=O)N2CCN(c3ccc(-c4cccnc4OCC)cc3CNCCNCCCOCCOCCOCCOCCNC(=O)CN3CCN(CC(=O)O)CCN(CC(=O)O)CCN(CC(=O)O)CC3)[C@H](CC)C2)c(C(F)(F)F)n1 [Compound 15, (R)-2,2′,2″-(10-(1-(2-(4-(6-ethoxy-2-(trifluoromethyl)nicotinoyl)-2-ethylpiperazin-1-yl)-5-(2-ethoxypyridin-3-yl)phenyl)-22-oxo-9,12,15,18-tetraoxa-2,5,21-triazatricosan-23-yl)-1,4,7,10-tetraazacyclododecane-1,4,7-triyl)triacetic acid]	< 10
CCOc1ccc(C(=O)N2CCN(c3ccc(-c4cccnc4OCC)cc3CNCCNCCCOCCOCCOCCOCCNC(=O)CN3CCN(CC(=O)[O-])CCN(CC(=O)[O-])CCN(CC(=O)[O-])CC3)[C@H](CC)C2)c(C(F)(F)F)n1.[Ga+3] [^69/71Ga complex of Compoud 15, gallium (R)-2,2′,2″-(10-(1-(2-(4-(6-ethoxy-2-(trifluoromethyl)nicotinoyl)-2-ethylpiperazin-1-yl)-5-(2-ethoxypyridin-3-yl)phenyl)-22-oxo-9,12,15,18-tetraoxa-2,5,21-triazatricosan-23-yl)-1,4,7,10-tetraazacyclododecane-1,4,7-triyl)triacetate]	< 10
2,2′,2″-(10-((R)-8-amino-1-(2′-ethoxy-5-((R)-4-(6-ethoxy-2-(trifluoromethyl)-nicotinoyl)-2-ethylpiperazin-1-yl)-[2,3′-bipyridin]-6-yl)-7,10,18-trioxo-14-oxa-2,6,11,17-tetra-azanonadecan-19-yl)-1,4,7,10-tetraazacyclododecane-1,4,7-triyl)triacetic acid [Compound 10]	< 10
(R)-2,2′,2″-(10-(1-(3-(4-(4-ethoxy-2-(trifluoromethyl)benzoyl)-2-ethylpiperazin-1-yl)-6-(2-ethoxyphenyl)pyridin-2-yl)-19-oxo-6,9,12,15-tetraoxa-2,18-diazaicosan-20-yl)-1,4,7,10-tetraazacyclododecane-1,4,7-triyl)triacetic acid [Compound 11]	< 10
CCOc1ccccc1-c1ccc(N2CCN(C(=O)c3ccc(Cl)cc3C(F)F)C[C@H]2CC)c(C(=O)NC2CCN(CCCOc3cc(NCCOCCNC(=O)CN4CCN(CC(=O)O)CCN(CC(=O)O)CCN(CC(=O)O)CC4)cc(C(=O)O)c3)C2)n1 (stereo in doubt) [Compound 13, 2,2′,2″-(10-(2-((2-(2-((3-carboxy-5-(3-((R)-3-(3-((R)-4-(4-chloro-2-(difluoromethyl)benzoyl)-2-ethylpiperazin-1-yl)-6-(2-ethoxyphenyl)picolinamido)pyrrolidin-1-yl)propoxy)phenyl)amino)ethoxy)ethyl)amino)-2-oxoethyl)-1,4,7,10-tetraazacyclododecane-1,4,7-triyl)triacetic acid]	< 10
CCOc1ccc(C(=O)N2CCN(c3ccc(-c4cccnc4OCC)nc3CNCCCCCCCCCCCCCCCNC(=O)CN3CCN(CC(=O)O)CCN(CC(=O)O)CCN(CC(=O)O)CC3)[C@H](CC)C2)c(C(F)(F)F)n1 [Compound 14, (R)-2,2′,2″-(10-(2-((15-(((2′-ethoxy-5-(4-(6-ethoxy-2-(trifluoromethyl)nicotinoyl)-2-ethylpiperazin-1-yl)-[2,3′-bipyridin]-6-yl)methyl)amino)pentadecyl)amino)-2-oxoethyl)-1,4,7,10-tetraazacyclododecane-1,4,7-triyl)triacetic acid]	< 10
CCOc1ccc(C(=O)N2CCN(c3ccc(-c4cccnc4OCC)nc3CNCCCNC(=O)C[C@H](O)C[C@H](O)CCNC(=O)CN3CCN(CC(=O)O)CCN(CC(=O)O)CCN(CC(=O)O)CC3)[C@H](CC)C2)c(C(F)(F)F)n1 [Compound 6, 2,2′,2″-(10-(2-(((3R,5R)-7-((3-(((2′-ethoxy-5-((R)-4-(6-ethoxy-2-(trifluoromethyl)-nicotinoyl)-2-ethylpiperazin-1-yl)-[2,3′-bipyridin]-6-yl)methyl)amino)propyl)-amino)-3,5-dihydroxy-7-oxoheptyl)amino)-2-oxoethyl)-1,4,7,10-tetraazacyclododecane-1,4,7-triyl)triacetic acid]	< 10
CCOc1ccccc1-c1ncc(C2(C(=O)N[C@@H]3CCN(CCOCCOCCOCCOCCNC(=O)CN4CCN(CC(=O)O)CCN(CC(=O)O)CCN(CC(=O)O)CC4)C3)CCN(c3ccc(C(F)(F)F)cc3C#N)CC2)cc1F [Compound 9, (R)-2,2′,2″-(10-(17-(3-(1-(2-cyano-4-(trifluoromethyl)phenyl)-4-(6-(2-ethoxy-phenyl)-5-fluoropyridin-3-yl)piperidine-4-carboxamido)pyrrolidin-1-yl)-2-oxo-6,9,12,15-tetra-oxa-3-azaheptadecyl)-1,4,7,10-tetraazacyclododecane-1,4,7-triyl)triacetic acid]	< 10

Other lines, results leading:

Ki [nM]	Molecule
< 10	CCOc1ccc(C(=O)N2CCN(c3ccc(-c4cccnc4OCC)nc3CNCCCNC(=O)[C@@H](N)CC(=O)NCCOCCNC(=O)CN3CCN(CC(=O)O)CCN(CC(=O)O)CCN(CC(=O)O)CC3)[C@H](CC)C2)c(C(F)(F)F)n1 [^115In complex of Compound 5]
< 10	CCOc1ccc(C(=O)N2CCN(c3ccc(-c4ccccc4OCC)nc3CNCCCOc3cc(NCCOCCNC(=O)CN4CCN(CC(=O)O)CCN(CC(=O)O)CCN(CC(=O)O)CC4)cc(C(=O)O)c3)[C@H](CC)C2)c(C(F)(F)F)c1 [^115In complex of Compound 3]
< 10	CCOc1ccc(C(=O)N2CCN(c3ccc(-c4cccnc4OCC)nc3CNCCCN(CCOCCOCCOCCNC(=O)CN3CCN(CC(=O)O)CCN(CC(=O)O)CCN(CC(=O)O)CC3)CCOCCOCCOCCNC(=O)CN3CCN(CC(=O)O)CCN(CC(=O)O)CCN(CC(=O)O)CC3)[C@H](CC)C2)c(C(F)(F)F)n1 [^115In complex of Compound 4]
< 10	CCOc1ccc(C(=O)N2CCN(c3ccc(-c4cccnc4OCC)nc3CNCCCOCCOCCOCCOCCNC(=O)CCC(C(=O)O)N3CCN(CC(=O)O)CCN(CC(=O)O)CCN(CC(=O)O)CC3)[C@H](CC)C2)c(C(F)(F)F)n1 (stereo partly drawn) [Compound 18, 2,2′,2″-(10-(22-carboxy-1-(2′-ethoxy-5-((R)-4-(6-ethoxy-2-(trifluoromethyl)-nicotinoyl)-2-ethylpiperazin-1-yl)-(2,3′-bipyridin]-6-yl)-19-oxo-6,9,12,15-tetraoxa-2,18-diazadocosan-22-yl)-1,4,7,10-tetraazacyclododecane-1,4,7-triyl)triacetic acid]
< 10	CCOc1ccc(C(=O)N2CCN(c3ccc(-c4ccccc4OCC)nc3CNCCNCCCOCCOCCOCCOCCNC(=O)CN3CCN(CC(=O)O)CCN(CC(=O)O)CCN(CC(=O)O)CC3)[C@H](CC)C2)c(C(F)(F)F)c1 [Compound 17, (R)-2,2′,2″-(10-(1-(3-(4-(4-ethoxy-2-(trifluoromethyl)benzoyl)-2-ethylpiperazin-1-yl)-6-(2-ethoxyphenyl)pyridin-2-yl)-22-oxo-9,12,15,18-tetraoxa-2,5,21-triazatricosan-23-yl)-1,4,7,10-tetraazacyclododecane-1,4,7-triyl)triacetic acid]
< 10	CCOc1ccc(C(=O)N2CCN(c3ccc(-c4cccnc4OCC)nc3CNCCCC[C@@H](NC(=O)CN3CCN(CC(=O)O)CCN(CC(=O)O)CCN(CC(=O)O)CC3)C(=O)O)[C@H](CC)C2)c(C(F)(F)F)n1 [^115In complex of Compound 2]
